Results taken from the supplement of paper PMC10307832.

Legend:
Assay in all cases: relative viability (nuclei count vs DMSO), 5 days (fraction); higher = more cells survive
Dasatinib = compound: Cc1nc(Nc2ncc(C(=O)Nc3c(C)cccc3Cl)s2)cc(N2CCN(CCO)CC2)n1 [Dasatinib]
Procedure, shortened: (§1)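 MetaXpress counted nuclei in 4× images of lung cancer cell lines that had been fixed, permeabilised and Hoechst-stained in one step. Before that, cells in 1536-well plates were kept overnight at 37 °C, pinned with five √10-spaced library-drug doses on vehicle-anchored plates, and cultured 5 days without medium change. Viability takes treated-well nuclei over vehicle-well nuclei and uses the median across plates. Plates were accepted only at control CV below 25% and at least one doubling.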

ALW-II-49-7 = compound: Cc1ccc(C(=O)Nc2cccc(C(F)(F)F)c2)cc1Nc1cncc(C(N)=O)c1 [ALW-II-49-7]
Procedure, shortened: as §1

XMD13-2 = compound: C1CC1C(=O)NC2=NNC3=C2C=CC(=C3)C4=CC(=CC=C4)C(=O)NC5CC5 [XMD13-2]
Procedure, shortened: as §1

Question: Which relative viability (Dasatinib; 0.005 µM) does the source give for UMC-11 here?
Answer: 0.916

Question: And the relative viability (Dasatinib; 0.01581 µM)?
Answer: 0.801

Question: What about the relative viability (Dasatinib; 0.05 µM) of the same cell line?
Answer: 0.63

Question: And the relative viability (Dasatinib; 0.075 µM, anchor plate)?
Answer: 0.479

Question: What about the relative viability (Dasatinib; 0.1581 µM) of the same cell line?
Answer: 0.415

Question: And the relative viability (Dasatinib; 0.5 µM)?
Answer: 0.37

Question: And the relative viability (ALW-II-49-7; 0.08 µM)?
Answer: 1.01

Question: What about the relative viability (ALW-II-49-7; 0.253 µM) of the same cell line?
Answer: 1.02

Question: And the relative viability (ALW-II-49-7; 0.8 µM)?
Answer: 0.975

Question: And the relative viability (ALW-II-49-7; 2.53 µM)?
Answer: 1.02

Question: What about the relative viability (ALW-II-49-7; 8 µM) of the same cell line?
Answer: 1.01

Question: What about the relative viability (XMD13-2; 0.05 µM) of the same cell line?
Answer: 1.12

Question: And the relative viability (XMD13-2; 0.1581 µM)?
Answer: 0.945

Question: What about the relative viability (XMD13-2; 0.5 µM) of the same cell line?
Answer: 0.993

Question: What about the relative viability (XMD13-2; 1.581 µM) of the same cell line?
Answer: 0.887

Question: And the relative viability (XMD13-2; 5 µM)?
Answer: 1.01
